Common to all, as to assay type: cell-based, human
Assay [1] has as its system RNA polymerase II Ser2 phosphorylation (p-Ser2) in SU-DHL-4 cells. Kind of assay: In vitro washout, p-Ser2 Western blot, SU-DHL-4. The conditions noted are these: 1 µmol/L, 4-hour treatment then washout. The method, then: (§1) Evaluation of the pharmacodynamic extent and duration of CDK9 inhibition were performed in vitro using the human DLBCL cell lines SU-DHL-4 and SU-DHL-10, harboring MYC amplification and MYC overexpression with P57T mutation, respectively. Cells were seeded 18 hours prior to treatment for 4 hours with one of three CDK9 inhibitors, enitociclib (0.25 and1 µmol/L), atuveciclib (1 µmol/L) or KB-0742 (1 µmol/L), cells were washed, and incubation continued until 48 hours posttreatment. Samples were collected before treatment (−4), immediately after treatment (0), and at 1, 2, 4, 8, 12, 16, 24, and 48 hours after washout for RNA sequencing (RNA-seq), qPCR, and Western blotting analyses.
(§2) The levels of p-Ser2, p-Ser5 and total RNA polymerase II, Myc, Mcl-1, cleaved PARP (cPARP), and cleaved Caspase 3 were assessed by Western blotting and quantified near-infrared detection and background corrected quantification of fluorescence intensity on an Odyssey Imaging System with IRDye secondary antibodies (LI-COR Biosciences). For quantification, the protein levels were normalized to GAPDH or HSP90, expressed as a ratio to DMSO or vehicle control at matched timepoints. The normalized relative protein levels of p-Ser2 were used for a treatment effect comparison by performing an ANOVA using PROC MIXED in SAS. The ANOVA model included treatment, timepoints and their interactions as fixed effects. The least square means (LSM), differences between the LSMs and associated P values were generated. The following primary antibodies were used: Rpb1 NTD (D8L4Y) rabbit antibody [Cell Signaling Technology (CST), #14958], anti-RNA polymerase II subunit B1 (phospho CTD Ser-2, clone 3E10) rat antibody (Merck, 04-1571-I), recombinant anti-c-MYC rabbit antibody (Y69; Abcam, #ab32072), MCL1 (D5V5L) rabbit antibody (CST, #39224), cleaved-PARP (Asp214) (E2T4K) mouse antibody (CST, #32563), HSP90 (C45G5) rabbit antibody (CST, #4877), and GAPDH mouse antibody (Zytomed Systems, #ZYT-RGM2-6C5).
(In general: A western blot detects proteins with antibodies after separation by electrophoresis.)

Assay [2] relates to SU-DHL-4 and SU-DHL-10 cell lines. Kind of assay: RNA-seq differential gene expression in DLBCL cell lines. The conditions noted are these: for PHF23 and TP53RK by RNA-seq (in words): 1 µmol/L, 4 hours. The method, then:
Evaluation of the pharmacodynamic extent and duration of CDK9 inhibition were performed in vitro using the human DLBCL cell lines SU-DHL-4 and SU-DHL-10, harboring MYC amplification and MYC overexpression with P57T mutation, respectively. Cells were seeded 18 hours prior to treatment for 4 hours with one of three CDK9 inhibitors, enitociclib (0.25 and1 µmol/L), atuveciclib (1 µmol/L) or KB-0742 (1 µmol/L), cells were washed, and incubation continued until 48 hours posttreatment. Samples were collected before treatment (−4), immediately after treatment (0), and at 1, 2, 4, 8, 12, 16, 24, and 48 hours after washout for RNA sequencing (RNA-seq), qPCR, and Western blotting analyses. Total RNA was extracted from blood of patients and cell lines using RNeasy Plus Mini Kit (QIAGEN, #74136) and cDNA prepared with the Maxima First Strand cDNA Synthesis Kit for RT-PCR (Thermo Fisher Scientific, K1642) according to manufacturer's instructions. The integrity of purified total RNA was evaluated using an Agilent 2100 Bioanalyzer system and RNA 6000 Nano Kit (Agilent, #5067-1511). Differential gene expression analysis was performed (Fios Genomics) from RNA-seq data (Discovery Life Sciences). MYC and MCL1 mRNA levels were measured by qPCR in vitro and in vivo, using a Taqman qPCR system (Thermo Fisher Scientific), TaqMan Fast Universal PCR Master Mix (2X) no AmpErase (#4352042) and TaqMan probes for MYC (Hs00153408_m1) and MCL1 (Hs03043899_m1). RNA-seq data were analyzed using DESeq2 ([35]). RNA-seq data generated from the analysis of two cell lines treated with the three CDK9 inhibitors was analyzed to investigate the differences in gene expression levels between various posttreatment timepoints and the pretreatment samples. Quality control assessment and exploratory data analysis by principal component analysis (PCA) were done on raw counts and on normalized count data. Normalization of RNA-seq count data was done using trimmed mean of M-values normalization and transformed with voom, resulting in log2 counts per million with associated precision weights. […] Significance values (Padj) were adjusted for multiple testing, by controlling the FDR using the Benjamini–Hochberg procedure. […] RNA-seq data generated from blood samples taken from patients before and after their first dose (C1D1) or after multiple doses, before and after their third dose (C1D15) were analyzed and normalized using the same pipeline as cell lines for comparisons.

For assay [3], the system named is RNA polymerase II Ser2 phosphorylation (p-Ser2) in SU-DHL-10 cells. Put plainly: In vitro washout, p-Ser2 Western blot, SU-DHL-10. The conditions noted are these: 1 µmol/L, 4-hour treatment then washout. The protocol: as §1, §2
Assay [4] concerns cPARP in SU-DHL-10 cells. Kind of assay: In vitro washout, cPARP Western blot, SU-DHL-10. The conditions noted are these: 1 µmol/L, 4 h treatment then washout. The protocol: as §1
(§3) The levels of p-Ser2, p-Ser5 and total RNA polymerase II, Myc, Mcl-1, cleaved PARP (cPARP), and cleaved Caspase 3 were assessed by Western blotting and quantified near-infrared detection and background corrected quantification of fluorescence intensity on an Odyssey Imaging System with IRDye secondary antibodies (LI-COR Biosciences). For quantification, the protein levels were normalized to GAPDH or HSP90, expressed as a ratio to DMSO or vehicle control at matched timepoints. The normalized relative protein levels of p-Ser2 were used for a treatment effect comparison by performing an ANOVA using PROC MIXED in SAS. The ANOVA model included treatment, timepoints and their interactions as fixed effects. […]

Assay [5] has as its system MYC mRNA in SU-DHL-10 cells. Kind of assay: In vitro washout, MYC mRNA qPCR, SU-DHL-10. As to conditions: 1 µmol/L 4 h then washout, maintained for up to 16 hours after treatment. The protocol: (§4) Evaluation of the pharmacodynamic extent and duration of CDK9 inhibition were performed in vitro using the human DLBCL cell lines SU-DHL-4 and SU-DHL-10, harboring MYC amplification and MYC overexpression with P57T mutation, respectively. Cells were seeded 18 hours prior to treatment for 4 hours with one of three CDK9 inhibitors, enitociclib (0.25 and1 µmol/L), atuveciclib (1 µmol/L) or KB-0742 (1 µmol/L), cells were washed, and incubation continued until 48 hours posttreatment. Samples were collected before treatment (−4), immediately after treatment (0), and at 1, 2, 4, 8, 12, 16, 24, and 48 hours after washout for RNA sequencing (RNA-seq), qPCR, and Western blotting analyses. Total RNA was extracted from blood of patients and cell lines using RNeasy Plus Mini Kit (QIAGEN, #74136) and cDNA prepared with the Maxima First Strand cDNA Synthesis Kit for RT-PCR (Thermo Fisher Scientific, K1642) according to manufacturer's instructions. The integrity of purified total RNA was evaluated using an Agilent 2100 Bioanalyzer system and RNA 6000 Nano Kit (Agilent, #5067-1511). Differential gene expression analysis was performed (Fios Genomics) from RNA-seq data (Discovery Life Sciences). MYC and MCL1 mRNA levels were measured by qPCR in vitro and in vivo, using a Taqman qPCR system (Thermo Fisher Scientific), TaqMan Fast Universal PCR Master Mix (2X) no AmpErase (#4352042) and TaqMan probes for MYC (Hs00153408_m1) and MCL1 (Hs03043899_m1). RNA-seq data were analyzed using DESeq2 ([35]).

The subject of assay [6] is MCL1 mRNA in SU-DHL-10 cells. Put plainly: In vitro washout, MCL1 mRNA qPCR, SU-DHL-10. The conditions noted are these: 1 µmol/L 4 h then washout, maintained for up to 16 hours after treatment. The method, then: as §4
(In general: In qPCR the cycle at which signal appears reflects the starting amount.)

In assay [7] the test system is Myc and Mcl-1 protein in SU-DHL-4 cells. Put plainly: In vitro washout, Myc and Mcl-1 protein Western blot, SU-DHL-4. As to conditions: 0.25 µmol/L enitociclib, atuveciclib (1 µmol/L). The protocol:
as §1, §3

The structures appear in SMILES notation.

In the case of `CCC(CC)c1cc(N[C@H]2CC[C@H](N)C2)n2nccc2n1` [KB-0742], in assay [1], the “decrease of p-Ser2 levels” value was 50% and the “duration of p-Ser2 decrease” value is “up to 12 hours”. Besides, in assay [2], the “PHF23 and TP53RK by RNA-seq (in words)” value is reported as “not”. For the same compound, in assay [2] (4 hours treatment, in vitro), the “MCL1 mRNA by RNA-seq (in words)” value is given as “upregulated” and the “MYC mRNA by RNA-seq (in words)” value is given as “not statistically significant”. Moreover, in assay [3], the “p-Ser2 inhibition (in words)” value is “only in the presence of the treatment compound and not after washout”. Further, the “effect on cPARP (in words)” value in assay [4] was “no effect”. For the same compound, in assay [5], the “depletion of MYC mRNA levels” value is reported as “approximately 50%”. In addition, the “depletion of MCL1 mRNA levels” value in assay [6] is on record as “approximately 50%”.
Consider `COc1cc(F)ccc1-c1ncnc(Nc2cccc(C[S@](C)(=N)=O)c2)n1` [atuveciclib, reference compound], for which, in assay [1], the “decrease of p-Ser2 levels” value was roughly 50% and the “duration of p-Ser2 decrease” value is “up to 16 hours”. In addition, the “PHF23 and TP53RK by RNA-seq (in words)” value in assay [2] is on record as “not”. In addition, in assay [2] (4 hours treatment, in vitro), the “MCL1 mRNA by RNA-seq (in words)” value is “downregulation is observed but not statistically significant”, the “MYC mRNA by RNA-seq (in words)” value was “statistically significantly downregulated” and the “ZPF36 by RNA-seq (in words)” value is on record as “significantly downmodulated”. Moreover, the “p-Ser2 inhibition (in words)” value in assay [3] was “only in the presence of the treatment compound and not after washout”. Further, the “depletion of MYC mRNA levels” value in assay [5] was “approximately 50%”. In addition, the “depletion of MCL1 mRNA levels” value in assay [6] is “approximately 50%”. Besides, in assay [7], the “sustained Myc and Mcl-1 protein depletion for 48 hours (in words)” value is “this was achieved”.

Source of the values: PMC10634346 (Cancer Research Communications, 2023).
